Here are results for 3 molecules from ChEMBL document CHEMBL1201862, “PubChem BioAssay data set” (2004).

Type in all cases: functional
In experiment [1] the target is T1, Apoptotic protease-activating factor 1 (Homo sapiens, UniProt O14727).
T1 sequence (O14727 whole entry): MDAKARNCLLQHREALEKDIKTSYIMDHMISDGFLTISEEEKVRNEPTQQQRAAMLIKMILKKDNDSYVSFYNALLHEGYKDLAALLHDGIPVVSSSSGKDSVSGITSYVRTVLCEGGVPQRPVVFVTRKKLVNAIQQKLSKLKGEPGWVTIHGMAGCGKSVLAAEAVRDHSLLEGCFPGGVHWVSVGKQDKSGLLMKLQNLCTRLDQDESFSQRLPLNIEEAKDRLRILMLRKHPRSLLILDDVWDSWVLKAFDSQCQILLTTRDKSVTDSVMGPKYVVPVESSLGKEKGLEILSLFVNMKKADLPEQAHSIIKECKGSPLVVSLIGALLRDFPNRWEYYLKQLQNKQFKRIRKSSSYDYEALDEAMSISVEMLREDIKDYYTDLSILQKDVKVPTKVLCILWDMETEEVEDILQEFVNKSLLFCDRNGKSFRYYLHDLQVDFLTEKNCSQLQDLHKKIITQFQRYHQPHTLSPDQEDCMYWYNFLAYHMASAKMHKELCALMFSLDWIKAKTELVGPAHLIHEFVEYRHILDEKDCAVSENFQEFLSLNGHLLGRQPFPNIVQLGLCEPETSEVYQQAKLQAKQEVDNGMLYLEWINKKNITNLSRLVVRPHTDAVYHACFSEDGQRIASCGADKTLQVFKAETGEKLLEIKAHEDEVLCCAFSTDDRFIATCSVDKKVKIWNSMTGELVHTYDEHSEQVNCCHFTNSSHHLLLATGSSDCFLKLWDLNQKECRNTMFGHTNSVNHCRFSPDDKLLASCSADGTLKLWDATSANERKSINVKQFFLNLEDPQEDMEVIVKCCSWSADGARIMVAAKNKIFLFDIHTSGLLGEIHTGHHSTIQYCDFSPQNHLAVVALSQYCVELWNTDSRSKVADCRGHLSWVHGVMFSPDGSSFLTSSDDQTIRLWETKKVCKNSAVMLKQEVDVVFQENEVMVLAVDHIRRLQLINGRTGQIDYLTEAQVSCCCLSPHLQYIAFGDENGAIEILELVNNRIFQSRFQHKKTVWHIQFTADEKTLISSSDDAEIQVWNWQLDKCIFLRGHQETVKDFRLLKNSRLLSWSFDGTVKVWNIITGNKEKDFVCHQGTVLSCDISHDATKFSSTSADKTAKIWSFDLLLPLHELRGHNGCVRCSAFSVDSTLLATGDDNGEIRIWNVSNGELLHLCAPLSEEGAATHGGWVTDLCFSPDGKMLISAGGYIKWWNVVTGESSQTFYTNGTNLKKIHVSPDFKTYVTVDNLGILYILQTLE
Nature of the experiment: SAR analysis of small molecule Activators of Apaf-1 in a Fluorescent assay - set 2. As to conditions: read-out: EC50_Mean.

A short description of experiment [2]: SAR analysis of small molecule activators of Apaf-1 using a LZ-Caspase-9/Caspase-3 Fluorescent Selectivity assay - Set 2. As to conditions: read-out: EC50_Mean.
Experiment [3] concerns the target T2, High affinity choline transporter 1 (Homo sapiens, UniProt Q9GZV3).
T2 sequence (Q9GZV3 whole entry): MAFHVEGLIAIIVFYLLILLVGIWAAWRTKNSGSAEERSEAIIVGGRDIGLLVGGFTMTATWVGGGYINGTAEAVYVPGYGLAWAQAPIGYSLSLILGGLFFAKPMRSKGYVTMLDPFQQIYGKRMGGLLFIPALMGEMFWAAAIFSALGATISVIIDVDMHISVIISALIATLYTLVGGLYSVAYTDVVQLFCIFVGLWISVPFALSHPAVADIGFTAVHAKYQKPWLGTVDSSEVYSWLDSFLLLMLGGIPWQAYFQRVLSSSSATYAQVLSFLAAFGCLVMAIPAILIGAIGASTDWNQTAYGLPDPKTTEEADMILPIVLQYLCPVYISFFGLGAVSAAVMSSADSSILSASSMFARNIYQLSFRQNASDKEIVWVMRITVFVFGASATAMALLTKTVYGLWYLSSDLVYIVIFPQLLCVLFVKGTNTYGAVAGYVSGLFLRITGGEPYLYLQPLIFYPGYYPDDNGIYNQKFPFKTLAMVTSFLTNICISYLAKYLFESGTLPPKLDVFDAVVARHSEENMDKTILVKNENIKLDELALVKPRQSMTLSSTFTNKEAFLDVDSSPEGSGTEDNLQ
Nature of the experiment: CHT inhibitors, dose response, cell-based, 10-point CRC, membrane potential dye (AID 588401).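 Note: membrane potential dye fluorescence of choline-evoked depolarization via CHT.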

The target in experiment [4] is T2, High affinity choline transporter 1. Nature of the experiment: CHT inhibitors, dose response, cell-based, 5-point CRC, membrane potential dye (AID 504840).
The target in experiment [5] is Melanin-concentrating hormone receptor 1 (Homo sapiens, UniProt Q99705). Nature of the experiment: Late-stage fluorescence-based counterscreen for antagonists of the G-protein coupled receptor 7 (GPR7): cell-based dose response assay to identify antagonists of the melanin-concentrating hormone receptor 1 (MCHR1) Set 5. On the technique in general: The purpose of a counterscreen is to sort out artefacts and off-target activity.

Experiment [6] concerns the target T3, Neuropeptides B/W receptor type 1 (Homo sapiens, UniProt P48145).
T3 sequence (P48145 whole entry): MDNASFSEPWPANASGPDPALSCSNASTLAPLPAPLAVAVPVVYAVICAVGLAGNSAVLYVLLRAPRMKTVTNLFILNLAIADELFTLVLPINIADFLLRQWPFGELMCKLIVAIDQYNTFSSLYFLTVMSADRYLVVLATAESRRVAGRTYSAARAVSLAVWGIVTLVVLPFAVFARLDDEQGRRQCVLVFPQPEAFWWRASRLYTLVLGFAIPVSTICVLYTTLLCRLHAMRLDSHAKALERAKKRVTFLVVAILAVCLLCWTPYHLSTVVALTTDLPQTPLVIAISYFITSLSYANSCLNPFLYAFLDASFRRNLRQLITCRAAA
Nature of the experiment: GPR7 antagonist potency, late-stage follow-up, cell-based, fluorescence, dose response, set 5 (AID 588566).

SMILES strings stand for the structures. The source made the active and inactive calls.

Sequence of Melanin-concentrating hormone receptor 1 (Q99705 whole entry): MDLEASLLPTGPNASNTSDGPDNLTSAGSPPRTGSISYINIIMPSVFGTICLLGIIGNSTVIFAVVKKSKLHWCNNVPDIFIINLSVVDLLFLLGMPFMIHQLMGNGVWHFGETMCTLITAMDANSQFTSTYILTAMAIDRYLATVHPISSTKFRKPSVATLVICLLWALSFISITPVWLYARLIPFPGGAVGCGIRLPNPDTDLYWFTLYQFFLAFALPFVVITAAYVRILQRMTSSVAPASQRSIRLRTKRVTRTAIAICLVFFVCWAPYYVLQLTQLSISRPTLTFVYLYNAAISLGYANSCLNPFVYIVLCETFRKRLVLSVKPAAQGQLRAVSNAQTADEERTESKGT

With `CC(CNC(C)c1ccccc1)C(=O)O` (stereo unspecified), the EC50 is 80.6 µM (active) in experiment [1] and > 100 µM (inactive) in experiment [2].
Usually IC50 stands for the concentration at which inhibition is half-maximal. Regarding `Cc1nnc(NCc2cccc(Cl)c2)c2ccccc12`, the figures for the IC50 in experiment [3] and in experiment [4] were 4.74 µM (active) and 9.8 µM (active), respectively.
In the case of `COc1c(F)cc(Oc2c(Cl)cnn(Cc3cccc4ccccc34)c2=O)cc1Cl`, the IC50 was 11.2 µM (inactive) in experiment [5] and 5.05 µM (active) in experiment [6].
